Results on 2 compounds are retold here after patent US4888329A, “Antiulcer composition” (Senju Pharmaceutical Co., Ltd., priority 1987, dated 1989).

For orientation: % Inhibition means the change of the read-out against control, counted positive when it falls. What is called LD50 is the dose expected to kill half of the subjects tested. Low values mean a more toxic substance, high ones a less toxic substance.

Data set [1] deals with rat stress ulcer. Put plainly: Effect on rat stress ulcer, oral (Experimental Example 1). Type of data set: in vivo, male Wistar rats. The note with it: disodium salt; for Length of ulcer: mean ± S.E., 5 h water immersion at 23° C., control 25.5 ± 4.29; for % Inhibition: length of ulcer vs control, 5 h water immersion. The protocol: The test drug was administered orally to male Wistar rats weighing 230-270 g and after 30 minutes, the four limbs of each rat were fixed to a board with tying thread. The rats were then immersed in water at 23° C. for 5 hours for stress loading. Ten minutes before water immersion, 3 ml/kg of 5% Pontamine Sky Blue was intravenously injected. After this 5-hour water immersion, the rats were removed from the water and the stomach was excised and fixed in 1% aqueous formaldehyde. Then, the length of the gastric ulcer induced was measured.
*Control: 5% gum arabic solution, 5 ml/kg
In the above table, each value in the column corresponding to length of ulcer is the mean ± S.E. (standard error) and the figure in parentheses denotes the number of the cases.

For data set [2], the system named is rat stress ulcer. Briefly: Effect on rat stress ulcer, intraperitoneal (Experimental Example 2). The note with it: 10 mg/5ml/kg intraperitoneal, disodium salt. Type of data set: in vivo, male Wistar rats. The protocol: The test drug was aministered intraperitoneally to male Wistar rats weighing about 150 g. After 30 minutes, each rat was fixed to a board with tying thread and immersed in water at 23° C. for 7 hours for stress loading. Ten minutes before water immersion, 3 ml/kg of 5% Pontamine Sky Blue was intravenously administered.
After this 7-hour water immersion, the rats were removed from the water and the stomach was excised and fixed in 1% aqueous formaldehyde. Then, the length (mm) of the gastric ulcer induced was measured.
(§1) *physiological saline, 5 ml/kg
In the above table, each value in the column corresponding to the length of ulcer is the mean ± S.E. and the figure in the parentheses denotes the number of cases.

Data set [3] concerns indomethacin-induced ulcer. Briefly: Effect on indomethacin-induced ulcer (Experimental Example 3). Type of data set: in vivo, male Donryu rats. The note with it: disodium salt; for Length of ulcer: 30 min before indomethacin, mean ± S.E., 7 h after indomethacin, control 30.8 ± 5.97; for % Inhibition: length of ulcer vs control. The protocol: Male Donryu rats weighing 180-200 g were fasted for 24 hours and, then, a suspension of indomethacin in 1% carboxymethylcellulose (30 mg/[…]) was subcutaneously injected. The test drug was orally administered 30 minutes before indomethacin loading. Ten minutes before sacrifice at 7 hours after indomethacin loading, 3 ml/kg 5% Pontamine Sky Blue was intravenously injected. After sacrifice, the stomach was excised and fixed in 1% aqueous formaldehyde. Then, the length (mm) of the gastric ulcer induced was measured.
*5% gum arabic solution, 5 ml/kg
In the above table, each value in the column corresponding to the length of ulcer is the mean ± S.E. and the figure in parentheses denotes the number of cases.

The subject of data set [4] is rat stress ulcer. Put plainly: Effect on rat stress ulcer, intraperitoneal (Experimental Example 4). Type of data set: in vivo, male Wistar rats. The note with it: for Length of ulcer: mean ± S.E., 7 h water immersion at 23° C., control 31.7 ± 3.64; for % Inhibition: length of ulcer vs control. The method, then:
The test drugs were administered intraperitoneally to male Wistar rats weighing about 130-190 g and after 30 minutes, the four limbs of each rat were fixed to a board with tying thread. The rats were then immersed in water at 23° C. for 7 hours for stress loading. Ten minutes before water immersion, 3 ml/kg of 5% Pontamine Sky Blue was intravenously injected. After 7-hour water immersion, the rats were removed from the water and stomach was excised and fixed in 1% aqueous formaldehyde. Then length of gastric ulcer induced was measured.
as §1
In the above table, each value in the column corresponding to length of ulcer is the mean ± S.E. and the figure in the parentheses denotes the number of cases.

A short description of a further data set: Toxicity in rat (LD50). The note with it: in vivo. From the text:
For instance, the toxicity in rat of disodium salt of phosphoric acid diester of L-ascorbic acid and DL-α-tocopherol was observed as follows: […]

Where only a bound is given, the exact number is not on record here.

For `Cc1c(C)c2c(c(C)c1OP(=O)(O)OC1=C(O)[C@@H]([C@@H](O)CO)OC1=O)CCC(C)(CCCC(C)CCCC(C)CCCC(C)C)O2` (mixture of isomers) [α-EPC, phosphoric acid diester of L-ascorbic acid and DL-α-tocopherol], the Length of ulcer is given as 19.4 ± 6.91 mm in the data set with rat stress ulcer [1] (100 mg/5ml/kg oral, n=5); 10.3 ± 3.51 mm in the data set with rat stress ulcer [1] (1000 mg/5ml/kg oral, n=6); 7.7 ± 6.00 mm in the data set with rat stress ulcer [2] (mean ± S.E., n=6, 7 h water immersion at 23° C., control 34.3 ± 4.76); 20.4 ± 3.72 mm in data set [3] (300 mg/5 ml/kg oral, n=8); 3.5 ± 1.54 mm in data set [3] (1000 mg/5 ml/kg oral, n=9); 8.5 ± 4.06 mm with rat stress ulcer [4] (10 mg/5 ml/kg intraperitoneal, disodium salt, n=10). Besides, the Length of ulcer in the data set with rat stress ulcer [4] (30 mg/5 ml/kg intraperitoneal, disodium salt, n=5) is reported as 2.8 ± 1.27 mm. In addition, the “% Inhibition” value in the data set on rat stress ulcer [1] (100 mg/5ml/kg oral) is given as 23.9%; with rat stress ulcer [1] (1000 mg/5ml/kg oral), 59.6%; with rat stress ulcer [2] (length of ulcer vs control, 7 h water immersion), 77.6%; in data set [3] (300 mg/5 ml/kg oral) it was 33.8%; in data set [3] (1000 mg/5 ml/kg oral), 88.6%; in the data set with rat stress ulcer [4] (10 mg/5 ml/kg intraperitoneal, disodium salt), 73.2%. In addition, the “% Inhibition” value in the data set with rat stress ulcer [4] (30 mg/5 ml/kg intraperitoneal, disodium salt) amounted to 91.2%. In addition, the 50% lethal dose (LD50) in “Toxicity in rat (LD50)” (po, per os) is > 10000 mg/kg; in the data set “Toxicity in rat (LD50)” (sc, subcutaneous administration), 793 mg/kg.

The compound `CN/C(=N/CCSCc1nc[nH]c1C)NC#N` [Cimetidine, reference compound] had a Length of ulcer with rat stress ulcer [4] (200 mg/5 ml/kg intraperitoneal, n=5) of 7.4 ± 7.16 mm. Further, the “% Inhibition” value with rat stress ulcer [4] (200 mg/5 ml/kg intraperitoneal) is on record as 76.7%.
